Source: patent US11078207B2, “Substituted pyrrolo[2,3-d]pyrimidines as HER2 inhibitors” (TAIHO PHARMACEUTICAL CO., LTD., priority 2019, dated 2021)
Read-outs that look alike come from different tables or passages of the source.

Columns and labels:
SK-BR-3 cells = assay: Growth inhibitory activity against HER2 expressing cell line SK-BR-3; type: cell-based; details: Homo sapiens, SK-BR-3, 72 h; 3 days, CellTiter-Glo 2.0
Procedure, shortened: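 SK-BR-3 cells in McCoy's 5a with 10% FBS, pre-cultured 1 day, then exposed to compound (final DMSO 0.2%) for 3 days at 37° C, 5% CO2. Viability by CellTiter-Glo 2.0 luminescence; growth inhibition % = (C−T)/C×100 versus untreated wells.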

[1] = Evaluation of brain penetration properties; type: in vivo, BALB/cA mice; details: mouse, 0.5 hours after oral 50 mg/kg/day, BALB/cA mice; for Kp at 0.5 h: read-out: Kp value (Compound concentration in brain/plasma)
HER2 = biological target: T1, HER2 (Homo sapiens, UniProt P04626); assay: Inhibitory effect (in vitro) on HER2 phosphorylation activity; type: biochemical; details: recombinant human HER2, ATP 5 μM, 25° C. 30 minutes
T1 construct: purchased Carna Biosciences, Inc
T1 sequence (P04626 23-1255): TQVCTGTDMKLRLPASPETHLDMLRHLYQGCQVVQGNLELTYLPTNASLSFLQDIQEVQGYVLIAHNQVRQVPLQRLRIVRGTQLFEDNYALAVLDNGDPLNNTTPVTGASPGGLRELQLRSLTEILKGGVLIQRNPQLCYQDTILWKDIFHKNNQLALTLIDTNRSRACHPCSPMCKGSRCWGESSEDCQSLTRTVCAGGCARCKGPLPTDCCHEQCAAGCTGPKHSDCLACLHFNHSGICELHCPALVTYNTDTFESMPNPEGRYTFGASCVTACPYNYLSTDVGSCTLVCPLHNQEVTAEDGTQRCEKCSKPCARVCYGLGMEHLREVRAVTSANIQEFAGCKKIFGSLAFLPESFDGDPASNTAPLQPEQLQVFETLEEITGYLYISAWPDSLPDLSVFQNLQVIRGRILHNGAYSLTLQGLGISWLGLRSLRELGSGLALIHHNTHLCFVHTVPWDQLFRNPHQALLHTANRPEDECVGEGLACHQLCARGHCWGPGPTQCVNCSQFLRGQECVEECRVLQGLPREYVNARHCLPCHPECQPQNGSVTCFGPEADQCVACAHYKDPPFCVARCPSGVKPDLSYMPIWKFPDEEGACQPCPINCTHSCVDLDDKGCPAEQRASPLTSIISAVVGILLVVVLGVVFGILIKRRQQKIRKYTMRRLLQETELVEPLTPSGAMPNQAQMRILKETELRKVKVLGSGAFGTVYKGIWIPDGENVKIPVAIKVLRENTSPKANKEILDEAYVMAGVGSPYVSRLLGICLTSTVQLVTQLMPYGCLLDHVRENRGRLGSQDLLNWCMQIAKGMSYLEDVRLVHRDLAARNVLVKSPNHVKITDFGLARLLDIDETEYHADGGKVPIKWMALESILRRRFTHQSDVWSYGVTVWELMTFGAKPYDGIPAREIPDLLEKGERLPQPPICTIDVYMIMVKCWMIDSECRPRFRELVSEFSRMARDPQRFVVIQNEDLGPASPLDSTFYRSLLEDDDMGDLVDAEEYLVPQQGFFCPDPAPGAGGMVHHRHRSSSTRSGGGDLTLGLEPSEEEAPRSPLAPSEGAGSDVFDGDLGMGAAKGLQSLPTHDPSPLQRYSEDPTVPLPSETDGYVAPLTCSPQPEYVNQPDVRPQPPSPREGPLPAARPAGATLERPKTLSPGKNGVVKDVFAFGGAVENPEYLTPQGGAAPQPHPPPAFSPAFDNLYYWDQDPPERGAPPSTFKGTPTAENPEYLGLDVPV
Procedure, shortened: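 Purified recombinant human HER2 phosphorylating 5-FAM-labeled ProfilerPro Peptide 22 substrate, compounds serially diluted in DMSO. Reaction stopped with EDTA at 30 mM final; unphosphorylated and phosphorylated peptides separated and detected by microchannel capillary electrophoresis.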

[2] = biological target: HER2 exon 20 insertion mutant (HER2ex20insYVMA, A775_G776insYVMA) (Homo sapiens, UniProt P04626, DUP772-775); assay: Inhibitory action (in vitro) against HER2 exon 20 insertion mutant phosphorylation activity; type: biochemical; details: 30 min pre-incubation, ATP 200 μM, 25° C. 220 minutes
HER2 exon 20 insertion mutant (HER2ex20insYVMA, A775_G776insYVMA), sequence (P04626 with tags, fused parts or gaps DUP772-775): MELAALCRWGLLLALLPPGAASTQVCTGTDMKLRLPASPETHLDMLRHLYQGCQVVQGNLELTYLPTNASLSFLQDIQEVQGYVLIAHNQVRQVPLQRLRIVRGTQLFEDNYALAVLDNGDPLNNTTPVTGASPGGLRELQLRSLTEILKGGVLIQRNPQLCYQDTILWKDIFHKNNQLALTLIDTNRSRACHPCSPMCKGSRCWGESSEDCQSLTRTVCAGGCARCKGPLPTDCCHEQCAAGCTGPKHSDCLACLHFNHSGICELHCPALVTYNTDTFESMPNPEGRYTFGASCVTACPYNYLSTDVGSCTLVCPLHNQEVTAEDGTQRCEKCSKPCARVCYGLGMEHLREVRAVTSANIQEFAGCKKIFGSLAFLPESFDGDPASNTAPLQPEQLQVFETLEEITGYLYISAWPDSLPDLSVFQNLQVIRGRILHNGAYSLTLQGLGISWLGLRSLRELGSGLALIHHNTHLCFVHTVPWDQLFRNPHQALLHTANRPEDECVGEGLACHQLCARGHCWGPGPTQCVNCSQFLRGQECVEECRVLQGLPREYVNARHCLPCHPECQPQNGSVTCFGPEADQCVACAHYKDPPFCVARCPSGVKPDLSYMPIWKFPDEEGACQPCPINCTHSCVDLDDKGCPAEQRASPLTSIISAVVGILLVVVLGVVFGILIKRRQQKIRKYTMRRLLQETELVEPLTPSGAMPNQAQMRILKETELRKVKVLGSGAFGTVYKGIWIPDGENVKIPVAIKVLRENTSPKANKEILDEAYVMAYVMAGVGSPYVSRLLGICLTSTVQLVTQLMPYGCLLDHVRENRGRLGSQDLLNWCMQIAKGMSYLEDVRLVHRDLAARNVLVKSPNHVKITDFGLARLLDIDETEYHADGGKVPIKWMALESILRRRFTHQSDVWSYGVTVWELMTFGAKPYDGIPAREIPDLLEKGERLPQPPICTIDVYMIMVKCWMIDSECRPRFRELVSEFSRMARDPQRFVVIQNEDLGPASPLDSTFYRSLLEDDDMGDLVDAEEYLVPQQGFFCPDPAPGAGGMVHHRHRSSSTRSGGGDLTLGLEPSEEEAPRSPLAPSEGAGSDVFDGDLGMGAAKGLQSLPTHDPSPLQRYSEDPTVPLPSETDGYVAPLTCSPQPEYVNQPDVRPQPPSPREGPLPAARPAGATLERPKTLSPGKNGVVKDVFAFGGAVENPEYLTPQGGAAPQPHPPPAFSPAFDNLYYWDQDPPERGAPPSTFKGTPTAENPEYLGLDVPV
Procedure, shortened: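 Purified recombinant human HER2 A775_G776insYVMA pre-incubated with compound (5% DMSO) 30 min at 25 °C in Tris pH 7.5 buffer; reaction with 1 μM ProfilerPro Peptide 22, 200 μM ATP, 25 mM MnCl2, 20 mM MgCl2 for 220 min at 25 °C, stopped with EDTA. Phosphorylated and unphosphorylated peptide separated by microchannel capillary electrophoresis.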

Ba/F3-HER2insYVMA cells = Ba/F3-HER2insYVMA cells (Homo sapiens, UniProt P04626, DUP772-775, cells depend on it); assay: Growth inhibitory activity against HER2 exon 20 insertion mutant expressing cell line; type: cell-based, mouse; details: 3 days, CellTiter-Glo 2.0, read-out: HER2ex20insYVMA cell growth inhibitory activity IC50 value
Ba/F3-HER2insYVMA cells, sequence (P04626 with tags, fused parts or gaps DUP772-775): as above

[3] = Evaluation of oral absorbability; type: in vivo, BALB/cA mice; details: mouse; plasma, oral 50 mg/kg/day, BALB/cA mice
[4] = brain, read-out: Compound concentration in brain
[5] = plasma, read-out: Compound concentration in plasma

Row | SMILES | IC50 (SK-BR-3 cells) [nM] | concentration at 0.5 h [1, 4] [µM] | Kp at 0.5 h ([1]; brain) | concentration at 0.5 h [1, 5] [µM] | IC50 (HER2) [nM] | IC50 [2] [nM] | GI50 (Ba/F3-HER2insYVMA cells) [nM] | AUC(0-t) [3] [µM·h]
1 | C=CC(=O)N1C[C@H](n2c(C#CC3CC3)c(C(=O)N[C@H](C)c3ccccc3)c3c(N)ncnc32)C[C@@H]1C [Example 11, 7-((3R,5S)-1-acryloyl-5-methylpyrrolidin-3-yl)-4-amino-6-(cyclopropylethynyl)-N—((R)-1-phenylethyl)-7H-pyrrolo[2,3-d]pyrimidine-5-carboxamide] | 6.6 | 2.7 | 0.23 | 12 | 3.2 | < 0.3 | 29 | 31
2 | C=CC(=O)N1C[C@H](n2c(C#CC(C)(C)C)c(C(=O)N[C@H](C)c3ccccc3)c3c(N)ncnc32)C[C@@H]1C [Example 12, 7-((3R,5S)-1-acryloyl-5-methylpyrrolidin-3-yl)-4-amino-6-(3,3-dimethylbut-1-yn-1-yl)-N—((R)-1-phenylethyl)-7H-pyrrolo[2,3-d]pyrimidine-5-carboxamide] | 17 | 3.2 | 0.29 | 11 | 3.4 | 0.39 | 43 | 36
3 | C=CC(=O)N1C[C@H](n2c(C#CC(C)(C)OC)c(C(=O)N[C@H](C)c3ccccc3)c3c(N)ncnc32)C[C@@H]1C [Example 13, 7-((3R,5S)-1-acryloyl-5-methylpyrrolidin-3-yl)-4-amino-6-(3-methoxy-3-methylbut-1-yn-1-yl)-N—((R)-1-phenylethyl)-7H-pyrrolo[2,3-d]pyrimidine-5-carboxamide] | 14 | 2.8 | 0.22 | 13 | 5.2 | 0.44 | 23 | 18
4 | C=CC(=O)N1C[C@H](n2c(C#CCC)c(C(=O)N[C@H](C)c3ccccc3)c3c(N)ncnc32)C[C@@H]1C [Example 14, 7-((3R,5S)-1-acryloyl-5-methylpyrrolidin-3-yl)-4-amino-6-(but-1-yn-1-yl)-N—((R)-1-phenylethyl)-7H-pyrrolo[2,3-d]pyrimidine-5-carboxamide] | 8.1 | 2.1 | 0.21 | 9.9 | 2.2 | < 0.3 | 27 | 27
5 | C=CC(=O)N1C[C@H](n2c(C#CC)c(C(=O)N[C@H](C)c3ccccc3)c3c(N)ncnc32)C[C@@H]1CC [Example 16, 7-((3R,5S)-1-acryloyl-5-ethylpyrrolidin-3-yl)-4-amino-N—((R)-1-phenylethyl)-6-(prop-1-yn-1-yl)-7H-pyrrolo[2,3-d]pyrimidine-5-carboxamide] | 1.4 | 4.4 | 0.35 | 12 | 3.3 | 0.44 | 9.7 | 15
6 | C=CC(=O)N1C[C@H](n2c(C#CC3CC3)c(C(=O)N[C@H](C)c3ccccc3)c3c(N)ncnc32)C[C@@H]1CC [Example 17, 7-((3R,5S)-1-acryloyl-5-ethylpyrrolidin-3-yl)-4-amino-6-(cyclopropylethynyl)-N—((R)-1-phenylethyl)-7H-pyrrolo[2,3-d]pyrimidine-5-carboxamide] | 4 | 6.5 | 0.39 | 17 | 2.9 | 0.54 | 20 | 21
7 | C=CC(=O)N1C[C@H](n2c(C#CC3CC3)c(C(=O)N[C@H](C)c3ccccc3)c3c(N)ncnc32)C[C@@H]1COC [Example 18, 7-((3R,5R)-1-acryloyl-5-(methoxymethyl)pyrrolidin-3-yl)-4-amino-6-(cyclopropylethynyl)-N—((R)-1-phenylethyl)-7H-pyrrolo[2,3-d]pyrimidine-5-carboxamide] | 3.4 | 1.6 | 0.22 | 7.7 | 2.3 | < 0.3 | 14 | 15
